Results taken from patent US6881741B2 (ViroChem Pharma Inc., priority 2001, dated 2005).

target: recombinant HCV NS5B (HCV RNA-dependent RNA polymerase) (Hepatitis C virus genotype 1b, UniProt P26663); experiment: biochemical; conditions: related polymerase activity (Example 27 list); read-out: IC50
Sequence (P26663 2420-3010 limits assumed): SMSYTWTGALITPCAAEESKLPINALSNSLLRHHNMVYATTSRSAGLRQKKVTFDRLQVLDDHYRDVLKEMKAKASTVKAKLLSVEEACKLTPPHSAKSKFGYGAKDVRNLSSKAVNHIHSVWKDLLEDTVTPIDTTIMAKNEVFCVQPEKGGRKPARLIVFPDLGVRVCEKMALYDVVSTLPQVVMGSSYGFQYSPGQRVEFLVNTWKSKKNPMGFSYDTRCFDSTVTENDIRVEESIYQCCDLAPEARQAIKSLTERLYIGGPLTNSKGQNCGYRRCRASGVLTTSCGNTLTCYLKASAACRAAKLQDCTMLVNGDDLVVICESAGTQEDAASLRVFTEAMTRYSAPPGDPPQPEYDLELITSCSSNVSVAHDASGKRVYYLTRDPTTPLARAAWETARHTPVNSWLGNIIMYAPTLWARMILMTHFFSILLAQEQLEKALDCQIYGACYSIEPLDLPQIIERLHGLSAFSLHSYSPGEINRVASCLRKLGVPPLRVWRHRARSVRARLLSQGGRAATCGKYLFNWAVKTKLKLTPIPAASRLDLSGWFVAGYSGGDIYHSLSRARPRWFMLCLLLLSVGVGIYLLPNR

Structure (SMILES) | IC50 [µM]
O=C(O)c1sc(-c2ccccc2)cc1N(Cc1ccc(-c2cc3ccccc3o2)s1)C(=O)c1ccc(Cl)cc1Cl [Compound 12, 3-[(5-BENZOFURAN-2-YL-THIOPHEN-2-YLMETHYL)-(2,4-DICHLORO-BENZOYL)-AMINO]-5-PHENYL-THIOPHENE-2-CARBOXYLIC ACID] | 5 to 20
Cc1ccc(S(=O)(=O)Nc2cc(-c3ccccc3)sc2C(=O)O)cc1 [Compound 13, 5-PHENYL-3-(TOLUENE-4-SULFONYLAMINO)-THIOPHENE-2-CARBOXYLIC ACID] | < 5
Cc1ccccc1S(=O)(=O)Nc1cc(-c2ccccc2)sc1C(=O)O [Compound 15, 5-PHENYL-3-(TOLUENE-2-SULFONYLAMINO)-THIOPHENE-2-CARBOXYLIC ACID] | > 20
Cc1cccc(S(=O)(=O)Nc2cc(-c3ccccc3)sc2C(=O)O)c1 [Compound 16, 5-PHENYL-3-(TOLUENE-3-SULFONYLAMINO)-THIOPHENE-2-CARBOXYLIC ACID] | 5 to 20
O=C(O)c1sc(-c2ccccc2)cc1NS(=O)(=O)c1ccccc1 [Compound 17, 3-BENZENESULFONYLAMINO-5-PHENYL-THIOPHENE-2-CARBOXYLIC ACID] | 5 to 20
O=C(O)c1sc(-c2ccccc2)cc1NS(=O)(=O)c1ccc(Cl)cc1 [Compound 18, 3-(4-CHLORO-BENZENESULFONYLAMINO)-5-PHENYL-THIOPHENE-2-CARBOXYLIC ACID] | < 5
Cc1ccc(C)c(S(=O)(=O)Nc2cc(-c3ccccc3)sc2C(=O)O)c1 [Compound 21, 3-(2,5-DIMETHYL-BENZENESULFONYLAMINO)-5-PHENYL-THIOPHENE-2-CARBOXYLIC ACID] | 5 to 20
COc1cc(C)c(S(=O)(=O)Nc2cc(-c3ccccc3)sc2C(=O)O)c(C)c1C [Compound 22, 3-(4-METHOXY-2,3,6-TRIMETHYL-BENZENESULFONYLAMINO)-5-PHENYL-THIOPHENE-2-CARBOXYLIC ACID] | < 5
O=C(O)c1sc(-c2ccccc2)cc1NS(=O)(=O)c1cccs1 [Compound 23, 5-PHENYL-3-(THIOPHENE-2-SULFONYLAMINO)-THIOPHENE-2-CARBOXYLIC ACID] | < 5
O=C(O)c1sc(-c2ccccc2)cc1NS(=O)(=O)c1ccc(F)cc1F [Compound 27, 3-(2,4-DIFLUORO-BENZENESULFONYLAMINO)-5-PHENYL-THIOPHENE-2-CARBOXYLIC ACID] | < 5
O=C(Nc1cc(Cl)nc(Cl)c1)Nc1cc(-c2ccccc2)sc1C(=O)O [Compound 28, 3-[3-(2,6-DICHLORO-PYRIDIN-4-YL)-UREIDO]-5-PHENYL-THIOPHENE-2-CARBOXYLIC ACID] | < 5
O=C(O)c1sc(-c2ccccc2)cc1NS(=O)(=O)c1ccccc1Cl [Compound 29, 3-(2-CHLORO-BENZENESULFONYLAMINO)-5-PHENYL-THIOPHENE-2-CARBOXYLIC ACID] | 5 to 20
O=C(O)c1sc(-c2ccccc2)cc1NS(=O)(=O)c1ccccc1F [Compound 30, 3-(2-FLUORO-BENZENESULFONYLAMINO)-5-PHENYL-THIOPHENE-2-CARBOXYLIC ACID] | 5 to 20
O=C(O)c1sc(-c2ccccc2)cc1NS(=O)(=O)c1ccccc1OC(F)(F)F [Compound 31, 5-PHENYL-3-(2-TRIFLUOROMETHOXY-BENZENESULFONYLAMINO)-THIOPHENE-2-CARBOXYLIC ACID] | > 20
CC(C)(C)c1ccc(S(=O)(=O)Nc2cc(-c3ccccc3)sc2C(=O)O)cc1 [Compound 32, 3-(4-TERT-BUTYL-BENZENESULFONYLAMINO)-5-PHENYL-THIOPHENE-2-CARBOXYLIC ACID] | 5 to 20
O=C(Nc1cc(-c2ccccc2)sc1C(=O)O)Oc1ccc(Cl)cc1 [Compound 33, 3-(4-CHLORO-PHENOXYCARBONYLAMINO)-5-PHENYL-THIOPHENE-2-CARBOXYLIC ACID] | 5 to 20
O=C(O)c1sc(-c2ccccc2)cc1NS(=O)(=O)c1ccc(Cl)c(Cl)c1 [Compound 34, 3-(3,4-DICHLORO-BENZENESULFONYLAMINO)-5-PHENYL-THIOPHENE-2-CARBOXYLIC ACID] | 5 to 20
O=C(O)c1sc(-c2ccccc2)cc1NS(=O)(=O)c1ccccc1C(F)(F)F [Compound 35, 5-PHENYL-3-(2-TRIFLUOROMETHYL-BENZENESULFONYLAMINO)-THIOPHENE-2-CARBOXYLIC ACID] | > 20
O=C(O)c1sc(-c2ccccc2)cc1NS(=O)(=O)c1cnc(Cl)c(Br)c1 [Compound 36, 3-(5-BROMO-6-CHLORO-PYRIDINE-3-SULFONYLAMINO)-5-PHENYL-THIOPHENE-2-CARBOXYLIC ACID] | > 20
O=C(O)c1sc(-c2ccccc2)cc1NS(=O)(=O)c1ccc(Cl)s1 [Compound 37, 3-(5-CHLORO-THIOPHENE-2-SULFONYLAMINO)-5-PHENYL-THIOPHENE-2-CARBOXYLIC ACID] | < 5
Cc1c(S(=O)(=O)Nc2cc(-c3ccccc3)sc2C(=O)O)sc2ccc(Cl)cc12 [Compound 38, 3-(5-CHLORO-3-METHYL-BENZO[ B ]THIOPHENE-2-SULFONYLAMINO)-5-PHENYL-THIOPHENE-2-CARBOXYLIC ACID] | < 5
O=C(O)c1sc(-c2ccccc2)cc1NS(=O)(=O)c1ccc(Br)cc1 [Compound 39, 3-(4-BROMO-BENZENESULFONYLAMINO)-5-PHENYL-THIOPHENE-2-CARBOXYLIC ACID] | < 5

Structure (SMILES) | IC50 [µM]
O=C(O)c1sc(-c2ccccc2)cc1NS(=O)(=O)c1cccc(Cl)c1 [Compound 40, 3-(3-CHLORO-BENZENESULFONYLAMINO)-5-PHENYL-THIOPHENE-2-CARBOXYLIC ACID] | < 5
Cc1nn(C)c(Cl)c1S(=O)(=O)Nc1cc(-c2ccccc2)sc1C(=O)O [Compound 41, 3-(5-CHLORO-1,3-DIMETHYL-1H-PYRAZOLE-4-SULFONYLAMINO)-5-PHENYL-THIOPHENE-2-CARBOXYLIC ACID] | 5 to 20
O=C(O)c1sc(-c2ccccc2)cc1NS(=O)(=O)c1cccc(Br)c1 [Compound 42, 3-(3-BROMO-BENZENESULFONYLAMINO)-5-PHENYL-THIOPHENE-2-CARBOXYLIC ACID] | 5 to 20
CC(C)c1ccc(S(=O)(=O)Nc2cc(-c3ccccc3)sc2C(=O)O)cc1 [Compound 43, 3-(4-ISOPROPYL-BENZENESULFONYLAMINO)-5-PHENYL-THIOPHENE-2-CARBOXYLIC ACID] | 5 to 20
O=C(O)c1sc(-c2ccccc2)cc1NS(=O)(=O)c1c(Cl)cccc1Cl [Compound 44, 3-(2,6-DICHLORO-BENZENESULFONYLAMINO)-5-PHENYL-THIOPHENE-2-CARBOXYLIC ACID] | < 5
O=C(O)c1sc(-c2ccccc2)cc1NS(=O)(=O)c1ccccc1[N+](=O)[O-] [Compound 45, 3-(2-NITRO-BENZENESULFONYLAMINO)-5-PHENYL-THIOPHENE-2-CARBOXYLIC ACID] | < 5
O=C(O)c1sc(-c2ccccc2)cc1NS(=O)(=O)c1ccc(-c2csnn2)s1 [Compound 46, 5-PHENYL-3-(5-[1,2,3]THIADIAZOL-4-YL-THIOPHENE-2-SULFONYLAMINO)-THIOPHENE-2-CARBOXYLIC ACID] | 5 to 20
O=C(O)c1sc(-c2ccccc2)cc1NS(=O)(=O)c1ccccn1 [Compound 47, 5-PHENYL-3-(PYRIDINE-2-SULFONYLAMINO)-THIOPHENE-2-CARBOXYLIC ACID] | > 20
O=C(O)c1sc(-c2ccccc2)cc1NCc1ccc(Cl)cc1Cl [Compound 48, 3-(2,4-DICHLORO-BENZYLAMINO)-5-PHENYL-THIOPHENE-2-CARBOXYLIC ACID] | < 5
O=C(O)c1sc(-c2ccccc2)cc1NS(=O)(=O)c1cccc(F)c1 [Compound 49, 3-(3-FLUORO-BENZENESULFONYLAMINO)-5-PHENYL-THIOPHENE-2-CARBOXYLIC ACID] | < 5
O=C(O)c1sc(-c2ccccc2)cc1NS(=O)(=O)c1cccc(C(F)(F)F)c1 [Compound 50, 5-PHENYL-3-(3-TRIFLUOROMETHYL-BENZENESULFONYLAMINO)-THIOPHENE-2-CARBOXYLIC ACID] | 5 to 20
COC(=O)c1sc(-c2ccccc2)cc1NC(=O)c1ccccc1C(=O)O [Compound 51, 3-(2-CARBOXY-BENZOYLAMINO)-5-PHENYL-THIOPHENE-2-CARBOXYLIC ACID METHYL ESTER] | 5 to 20
O=C(O)c1sc(-c2ccccc2)cc1NS(=O)(=O)c1ccc(C(F)(F)F)cc1 [Compound 52, 5-PHENYL-3-(4-TRIFLUOROMETHYL-BENZENESULFONYLAMINO)-THIOPHENE-2-CARBOXYLIC ACID] | < 5
O=C(O)c1sc(-c2ccccc2)cc1NS(=O)(=O)c1cc(F)ccc1F [Compound 53, 3-(2,5-DIFLUORO-BENZENESULFONYLAMINO)-5-PHENYL-THIOPHENE-2-CARBOXYLIC ACID] | < 5
N#Cc1ccccc1S(=O)(=O)Nc1cc(-c2ccccc2)sc1C(=O)O [Compound 54, 3-(2-CYANO-BENZENESULFONYLAMINO)-5-PHENYL-THIOPHENE-2-CARBOXYLIC ACID] | < 5
O=C(O)c1sc(-c2ccccc2)cc1NS(=O)(=O)c1cc(Cl)sc1Cl [Compound 55, 3-(2,5-DICHLORO-THIOPHENE-3-SULFONYLAMINO)-5-PHENYL-THIOPHENE-2-CARBOXYLIC ACID] | 5 to 20
Cc1ccccc1S(=O)(=O)Nc1cc(-c2cccs2)sc1C(=O)O [Compound 56, 4-(TOLUENE-2-SULFONYLAMINO)-[2,2′]BITHIOPHENYL-5-CARBOXYLIC ACID] | < 5
Cc1ccccc1S(=O)(=O)Nc1cc(-c2ccc(Cl)s2)sc1C(=O)O [Compound 57, 5′-CHLORO-4-(TOLUENE-2-SULFONYLAMINO)-[2,2′]BITHIOPHENYL-5-CARBOXYLIC ACID] | < 5
Cc1ccccc1S(=O)(=O)Nc1cc(-c2ccc(Cl)cc2Cl)sc1C(=O)O [Compound 58, 5-(2,4-DICHLORO-PHENYL)-3-(TOLUENE-2-SULFONYLAMINO)-THIOPHENE-2-CARBOXYLIC ACID] | 5 to 20
Cc1ccccc1S(=O)(=O)Nc1cc(-c2ccc([N+](=O)[O-])cc2)sc1C(=O)O [Compound 59, 5-(4-NITRO-PHENYL)-3-(TOLUENE-2-SULFONYLAMINO)-THIOPHENE-2-CARBOXYLIC ACID] | < 5
Cc1ccccc1S(=O)(=O)Nc1cc(-c2ccc(OC(F)(F)F)cc2)sc1C(=O)O [Compound 60, 3-(TOLUENE-2-SULFONYLAMINO)-5-(4-TRIFLUOROMETHOXY-PHENYL)-THIOPHENE-2-CARBOXYLIC ACID] | < 5
